Measurements reported in patent publication US8617546B2, “Anticancer agent comprising anti-PD-1 antibody or anti-PD-L1 antibody” (Seoul National University Industry Foundation, priority 2008, dated 2013).

How the values were obtained:
iNKT cells [1] = assay: iNKT cell activation in vivo: serum IFN-γ and IL-4 by ELISA after α-GC treatment; set-up: species or system C57BL/6 mice; details: 2 μg α-GC; FIG. 3
Procedure: C57BL/6 mice was injected with 200 μg of the control rat IgG, the anti-PD-1 mAb, the anti-PD-L1 mAb or the anti-PD-L2 mAb 24 hrs before treatment with 2 μg of α-GC. Sera were obtained at 0, 2, 6, 12, 24, 48 and 72 hrs after the treatment, followed by ELISA analysis for IFN-γ and IL-4 levels.

anergic iNKT cells [2] = assay: Recovery of responsiveness of anergic iNKT cells in vivo: serum cytokines after secondary α-GC injection; set-up: species or system C57BL/6 mice; details: 2 μg α-GC, re-injection 14 days later; FIG. 6
Procedure: 200 μg of the control rat IgG, the anti-PD-1 antibody or the anti-PD-L1 antibody was intraperitoneally injected into C57BL/6 mice 24 hrs before treatment with 2 μg of α-GC. 14 days later, 2 μg of α-GC was injected again, followed by the preparation of sera 2 and 12 hrs after the re-injection for ELISA assay of IL-4 and IFN-γ levels, respectively.

anergic iNKT cells [3] = assay: Recovery of responsiveness of anergic iNKT cells in vitro (cytokine ELISA of supernatants); assay type: cell-based, C57BL/6 mice; details: pre-treatment with 2 μg α-GC 7 days before restimulation, in presence of control IgG; FIG. 5
Procedure: The α-GC-induced unresponsiveness of iNKT cells was detected as early as 3 days after primary stimulation and observed to persist until 7~30 days after α-GC stimulation. Thus, C57BL/6 mice were injected with 2 μg of α-GC to induce iNKT cell anergy. One week and one month later, splenocytes were isolated from the mice and 5×10^5 cells were incubated for 3 days with 100 ng/ml of α-GC in the presence of 50 μg/ml of the control rat IgG, the anti-PD-1 mAb, the anti-PD-L1 mAb, or the anti-PD-L2 mAb. Also, splenocytes isolated from the mice were incubated for 3 days with 10 ng/ml of α-GC without mAb, and these were represented by ‘activation’. The supernatants were then assayed for IFN-γ and IL-4 levels by ELISA [*:p<0.05 and **:p<0.01 (vs. control rat IgG)].

iNKT cells [4] = assay: Expression of PD-1 and PD ligands on iNKT cells after α-GC administration (FACS); assay type: in vivo, C57BL/6 mice; details: FIG. 1
Procedure: Splenocytes were isolated from C57BL/6 mice administered with 2 μg of α-GC at different time points (0 hr, 6 hrs, 72 hrs, 7 days, one month and two months) after the administration. The cells were stained with a PE-conjugated anti-PD-1 monoclonal antibody, a PE-conjugated anti-PD-L1 monoclonal antibody, a PE-conjugated anti-PD-L2 monoclonal antibody and a PE-conjugated isotype control monoclonal antibody, respectively. iNKT cells were gated on B220^− TCR-β^intα-GC/CD1d:Ig^+ population. PD-1, PD-L1 and PD-L2 expression (open histograms) was analyzed by FACS. Shaded histograms indicate staining with isotype control niAbs.

[5] = tested on: B16F10 melanoma metastasis; assay: B16F10 melanoma metastasis model with anergy-induced iNKT cells: number of pulmonary nodules; assay type: in vivo, C57BL/6 mice; details: anergy induced with control IgG and α-GC; α-GC treatment during tumor inoculation; FIG. 10
Procedure: Anergy-induced iNKT cells were assayed for the recovery of anti-tumor activity by the antibodies of the present invention. In this regard, naive C57BL/6 mice were intraperitoneally injected with 200 μg of the control rat IgG, the anti-PD-1 antibody or the anti-PD-L1 antibody 24 hrs after which injection with 2 μg of α-GC induced iNKT cell anergy. 7 days later, 5×10^5 B16F10 tumor cells were i.v. injected. On Day 0, 4 and 8, the mice were treated with 500 ng of α-GC to induce anti-tumor activity of iNKT cells. 14 days later, the lungs were excised and the nodules formed by cancer metastasis were counted (A). The isolated lungs were observed under an optical microscope (B).

CCCCCCCCCCCCCCCCCCCCCCCCCC(=O)N[C@@H](CO[C@H]1O[C@H](CO)[C@H](O)[C@H](O)[C@H]1O)[C@H](O)[C@H](O)CCCCCCCCCCCCCC [α-GC, α-galactosylceramide]
time of peak blood IFN-γ level after α-GC treatment (iNKT cells [1]): ≤ 12 h
time of peak blood IL-4 level after α-GC treatment (iNKT cells [1]): ≤ 2 h
serum IFN-γ upon secondary α-GC injection in mice pretreated with α-GC (anergic iNKT cells [2]): significantly low
serum IL-4 upon secondary α-GC injection in mice pretreated with α-GC (anergic iNKT cells [2]): significantly low
production of IFN-γ on restimulation after α-GC pre-treatment (anergic iNKT cells [3]): greatly decrease
production of IL-4 on restimulation after α-GC pre-treatment (anergic iNKT cells [3]): greatly decrease
PD-L1 expression on iNKT cells (iNKT cells [4]; after 2 μg α-GC): temporarily increased
persistence of the upregulated PD-1 level on iNKT cells (iNKT cells [4]; after 2 μg α-GC): for two months
time for PD-L1 expression to decline toward naive state levels (iNKT cells [4]; after 2 μg α-GC): ≤ 72 h
PD-L2 expression on iNKT cells (iNKT cells [4]; regardless of activation status): not found
PD-1 expression on iNKT cells (iNKT cells [4]; splenocytes after 2 μg α-GC, 0 hr to two months): upregulated
tumor growth / metastasis with anergic iNKT cells [5]: did not suppress tumor growth
